# Measurements taken from patent US8293786B2 (Alltranz Inc., priority 2007, dated 2012).
# Tests used:
# human abdominal skin = assay: In vitro human skin permeation and skin disposition, flow-through diffusion cells (Examples 2, 2A, 2B); format: in vitro ADME; details: for Flux enhancement: total cannabidiol versus cannabidiol
# Description: Flow through diffusion cells were used for the permeation studies. HEPES-buffered Hanks' balanced salts containing 40% PEG 400 with gentamicin or 40% aqueous PEG 400 with gentamicin were used for the receiver compartment. Donor solution was comprised of 90:8:2 PG:H2O:IPM solution or gel formulation. […] Drug accumulation in the skin after a 24, 30 or 42 h diffusion experiment was determined as μmol/g wet tissue weight.
# The skin samples used in the following experiments were obtained from abdominal reduction surgery and dermatomed to a thickness of approximately 200 μm. The skin samples used herein were frozen at −20° C. for less than six months.
# One (1) L of receiver fluid was prepared by measuring 1 L of nanopure water into a graduated cylinder. 90% of the water was added to an Erlenmeyer flask. Hanks' salts (1 bottle) were added to the water along with 5.96 g of HEPES and 0.35 g of sodium bicarbonate. The pH of the solution was adjusted with 1 N sodium hydroxide solution to pH 7.4. The remaining water was added and the receiver fluid was filtered through a 0.2μ filter (Millipore, Billerica, Mass.). Fifty (50) mg of gentamicin was added to the filtered receiver fluid and 400 mL of the receiver fluid was removed and replaced with 400 mL of PEG 400.
# The receiver fluid was prepared by measuring 600 mL of nanopure H2O into a graduated cylinder. The H2O was filtered through a 0.2μ filter (Millipore, Billerica, Mass.). Fifty (50) mg of gentamicin was added to the filtered H2O and 400 mL of PEG 400 was added.
# The prodrugs were made up in a solution of 45:4:1 PG:H2O:IPM. For this solution, the appropriate amount of drug was weighed into a glass silanized culture tube and IPM was added, the 50 μL of PG to coat the drug, then an additional 247 μL PG was added and the donor solution was vortexed again. Finally 26 μL of water was added. The gel formulation resulted from the mixing of absolute ethanol, nanopure water, IPM, Carbopol® 980, 0.1 N sodium hydroxide solution and the respective drug.
# The gel formulation was comprised of absolute ethanol, nanopure water, IPM, Carbopol® 980, 0.1 sodium hydroxide solution and respective drug. The anhydrous gel was comprised of absolute ethanol, PEG monoethyl ether 550, Klucel® hydroxypropylcellulose, and respective drug.
# Dermatomed skin harvested from abdominoplasty, stored at −20° C., was used for the experiments. A PermeGear flow-through (In-Line, Hellertown, Pa.) diffusion cell system was used for the skin permeation studies.
# Diffusion cells were kept at 32° C. with a circulating water bath. Human epidermal skin was arranged in the diffusion cell with stratum corneum (upper layer of skin) facing the donor compartment. The permeation area of the skin was 0.95 cm^2. The data was collected from a human skin donor with three diffusion cells per treatment.
# The receiver solution was HEPES-buffered Hanks' balanced salts with gentamicin containing 40% PEG 400 at a pH of 7.4 or 40% aqueous PEG 400 and flow rate was adjusted to 0.8 mL/h. Each cell was charged with 0.10 mL of the respective drug formulation (donor solution) or 50 μL of gel formulation which was rubbed into the skin for 15 sec with a Teflon coated rod. The formulation was applied to ensure complete coverage. […]. Diffusion cells were covered with a stopper or cap for the duration of the study.
# Samples were collected into scintillation vials in 3 h increments for either 24, 30, or 42 h. All the samples were stored at 4° C. until extracted. An aliquot (0.5 mL) of the diffusion sample was placed into a silanized HPLC vial and 0.5 mL of acetonitrile was added to the sample, capped and vortexed.
# At the end of the experiment, the skin tissue was removed from the diffusion cell, rinsed with nanopure water, and blotted dry with a paper towel. The skin was tape stripped twice using book tape (Scotch™, 3M, St. Paul, Minn.) to remove drug formulation adhering to the tissue surface.
# [1] = Plasma stability of cannabidiol prodrugs (bioconversion to parent drug); format: in vitro ADME; details: for % mono-prodrug at time (h) / % Di-prodrug at time (h): di-prodrug in plasma; for % mono-prodrug at time (h): mono-prodrug formed; for % Prodrug at time (h): mono-prodrug in plasma
# Description: An approximated 1 mg/mL stock solution of each prodrug was prepared in 100 μL of ethanol and 900 μL of acetonitrile. Ten (10) μL of stock was spiked into 1 mL of plasma and vortexed. The samples were kept sealed in an amber vial and samples were obtained to analyze for bioconversion to parent drug.
# [2] = Table 18, 90:8:2 PG:H2O:IPM donor solution, 40% aqueous PEG 400 receiver fluid, CBD from applied prodrug
# [3] = Table 18, 90:8:2 PG:H2O:IPM donor solution, 40% aqueous PEG 400 receiver fluid, as applied compound (CBD or intact prodrug)
# [4] = Table 18, 90:8:2 PG:H2O:IPM donor solution, 40% aqueous PEG 400 receiver fluid, mono-prodrug from applied di-prodrug
# [5] = Table 18, 90:8:2 PG:H2O:IPM donor solution, 40% aqueous PEG 400 receiver fluid, prodrug applied, as total cannabidiol equivalents
# [6] = Table 23, gel formulation, 40% aqueous PEG 400 receiver fluid, as applied compound (CBD or intact prodrug)
# [7] = Table 23, gel formulation, 40% aqueous PEG 400 receiver fluid, mono-prodrug (ALL00149) from applied di-prodrug
# [8] = Table 23, gel formulation, 40% aqueous PEG 400 receiver fluid, prodrug applied, as total cannabidiol equivalents
# [9] = Table 17, 90:8:2 PG:H2O:IPM donor solution, 40% aqueous PEG 400 receiver fluid, as applied compound (CBD or intact prodrug)
# [10] = Table 17, 90:8:2 PG:H2O:IPM donor solution, 40% aqueous PEG 400 receiver fluid, prodrug applied, as total cannabidiol equivalents
# [11] = Table 16, 90:8:2 PG:H2O:IPM donor solution, 60/40 Hanks'/PEG 400 receiver fluid, CBD from applied prodrug
# [12] = Table 16, 90:8:2 PG:H2O:IPM donor solution, 60/40 Hanks'/PEG 400 receiver fluid, as applied compound (CBD or intact prodrug)
# [13] = Table 16, 90:8:2 PG:H2O:IPM donor solution, 60/40 Hanks'/PEG 400 receiver fluid, prodrug applied, as total cannabidiol equivalents
compound,measurement,setting,value
"C=C(C)[C@@H]1CCC(C)=C[C@H]1c1c(OC(=O)CO)cc(CCCCC)cc1OC(=O)CO [ALL00147, CBD Diglycolate]",30 h cumulative amt,human abdominal skin; [2],8.2 ± 7.0 nmol
same,30 h skin conc,human abdominal skin; [2],3.9 ± 0.8 µmol/g
same,Flux,human abdominal skin; [2],0.7 ± 0.6 nmol/cm^2/h
same,Lag time,human abdominal skin; [2],16.7 ± 0.7 h
same,30 h cumulative amt,human abdominal skin; [3],11.7 ± 3.8 nmol
same,30 h skin conc,human abdominal skin; [3],6.3 ± 5.6 µmol/g
same,Flux,human abdominal skin; [3],0.7 ± 0.01 nmol/cm^2/h
same,Lag time,human abdominal skin; [3],13.0 ± 5.9 h
same,30 h cumulative amt,human abdominal skin; [4],9.1 ± 0.2 nmol
same,30 h skin conc,human abdominal skin; [4],7.1 ± 6.3 µmol/g
same,Flux,human abdominal skin; [4],0.6 ± 0.2 nmol/cm^2/h
same,Lag time,human abdominal skin; [4],11.8 ± 5.9 h
same,30 h cumulative amt,human abdominal skin; [5],29.0 ± 3.4 nmol
same,30 h skin conc,human abdominal skin; [5],17.3 ± 12.6 µmol/g
same,Flux,human abdominal skin; [5],1.9 ± 0.8 nmol/cm^2/h
same,Lag time,human abdominal skin; [5],13.3 ± 5.0 h
same,Flux enhancement,"human abdominal skin; Table 18, 90:8:2 PG:H2O:IPM donor solution, 40% aqueous PEG 400 receiver fluid",0.24
same,24 h cumulative amt,human abdominal skin; [6],0.9 nmol
same,24 h skin conc,human abdominal skin; [6],0.8 ± 0.7 µmol/g
same,24 h cumulative amt,human abdominal skin; [7],5.7 nmol
same,24 h skin conc,human abdominal skin; [7],8.7 ± 6.6 µmol/g
same,Flux,human abdominal skin; [7],0.25 nmol/cm^2/h
same,24 h cumulative amt,human abdominal skin; [8],12.5 nmol
same,24 h skin conc,human abdominal skin; [8],9.5 ± 7.3 µmol/g
same,Flux,human abdominal skin; [8],0.58 nmol/cm^2/h
same,Flux enhancement,"human abdominal skin; Table 23, gel formulation, 40% aqueous PEG 400 receiver fluid",2.0
same,detected in the skin as,human abdominal skin; in donor solution,"prodrug, mono-substituted prodrug, ALL00149, and cannabidiol"
same,flux compared to cannabidiol,human abdominal skin; in donor solution,did not increase the flux
same,lag time compared to cannabidiol,human abdominal skin; in donor solution,not decreased
same,permeated through the skin as,human abdominal skin; in donor solution,"intact prodrug, mono-substituted prodrug (ALL00149), and cannabidiol"
same,total skin concentrations compared to cannabidiol,human abdominal skin; in donor solution,not higher
same,detected in the skin as,human abdominal skin; in gel formulation,"primarily as mono-prodrug, ALL00149 with a trace amount of ALL00147"
same,increase of the flux compared to cannabidiol,human abdominal skin; in gel formulation,2 fold
same,share permeated through the skin as cannabidiol,human abdominal skin; in gel formulation,47.2%
same,share permeated through the skin as intact di-prodrug,human abdominal skin; in gel formulation,7.2%
same,share permeated through the skin as mono-prodrug,human abdominal skin; in gel formulation,45.6%
same,total skin concentrations compared to cannabidiol,human abdominal skin; in gel formulation,weren't higher
same,% mono-prodrug at time (h),"[1]; Table 20, 0.5 h",0%
same,% mono-prodrug at time (h),"[1]; Table 20, 2 h",0%
same,% mono-prodrug at time (h),"[1]; Table 20, 22 h",0%
same,% mono-prodrug at time (h),"[1]; Table 20, 24 h",0%
same,% Di-prodrug at time (h),"[1]; Table 20, 0 h",100%
same,% Di-prodrug at time (h),"[1]; Table 20, 0.5 h",55%
same,% Di-prodrug at time (h),"[1]; Table 20, 2 h",32%
same,% Di-prodrug at time (h),"[1]; Table 20, 22 h",13%
same,% Di-prodrug at time (h),"[1]; Table 20, 24 h",12%
same,% mono-prodrug at time (h),"[1]; Table 24, 0 h",3%
same,% mono-prodrug at time (h),"[1]; Table 24, 0.5 h",37%
same,% mono-prodrug at time (h),"[1]; Table 24, 1 h",10%
same,% mono-prodrug at time (h),"[1]; Table 24, 2 h",2%
same,% Di-prodrug at time (h),"[1]; Table 24, 0 h",97%
same,% Di-prodrug at time (h),"[1]; Table 24, 0.5 h",0%
same,% Di-prodrug at time (h),"[1]; Table 24, 1 h",0%
same,% Di-prodrug at time (h),"[1]; Table 24, 2 h",0%
"C=C(C)[C@@H]1CCC(C)=C[C@H]1c1c(OC(C)=O)cc(CCCCC)cc1OC(C)=O [ALL00142, CBD Diacetate]",30 h skin conc,human abdominal skin; [9],5.5 ± 0.3 µmol/g
same,30 h skin conc,human abdominal skin; [10],5.5 ± 0.3 µmol/g
same,detected in the skin as,human abdominal skin; in donor solution,only as intact prodrug
same,permeated through the skin as,human abdominal skin; in donor solution,did not permeate through the skin or was below detection in the receiver samples
same,total skin concentrations compared to cannabidiol,human abdominal skin; in donor solution,not higher
same,% mono-prodrug at time (h),"[1]; Table 20, 1 h",0%
same,% mono-prodrug at time (h),"[1]; Table 20, 3 h",0%
same,% mono-prodrug at time (h),"[1]; Table 20, 24 h",0%
same,% Di-prodrug at time (h),"[1]; Table 20, 0 h",100%
same,% Di-prodrug at time (h),"[1]; Table 20, 1 h",98%
same,% Di-prodrug at time (h),"[1]; Table 20, 3 h",90%
same,% Di-prodrug at time (h),"[1]; Table 20, 24 h",10%
"C=C(C)[C@@H]1CCC(C)=C[C@H]1c1c(OC(=O)OC)cc(CCCCC)cc1OC(=O)OC [ALL00143, CBD Bis(Methyl Carbonate)]",30 h skin conc,"human abdominal skin; Table 17, 90:8:2 PG:H2O:IPM donor solution, 40% aqueous PEG 400 receiver fluid, CBD from applied prodrug",0.5 ± 0.0 µmol/g
same,30 h skin conc,human abdominal skin; [9],5.8 ± 3.0 µmol/g
same,30 h skin conc,human abdominal skin; [10],6.0 ± 3.2 µmol/g
same,detected in the skin as,human abdominal skin; in donor solution,prodrug and trace amounts of cannabidiol
same,permeated through the skin as,human abdominal skin; in donor solution,did not permeate through the skin or was below detection in the receiver samples
same,total skin concentrations compared to cannabidiol,human abdominal skin; in donor solution,not higher
same,% mono-prodrug at time (h),"[1]; Table 20, 1 h",0%
same,% mono-prodrug at time (h),"[1]; Table 20, 3 h",0%
same,% mono-prodrug at time (h),"[1]; Table 20, 24 h",0%
same,% Di-prodrug at time (h),"[1]; Table 20, 0 h",100%
same,% Di-prodrug at time (h),"[1]; Table 20, 1 h",82%
same,% Di-prodrug at time (h),"[1]; Table 20, 3 h",76%
same,% Di-prodrug at time (h),"[1]; Table 20, 24 h",65%
"C=C(C)C1CCC(C)=CC1c1c(O)cc(CCCCC)cc1OC(=O)COCCOCCOC (centres unmarked) [ALL00140, CBD 2-[2-(2-methoxyethoxy)ethoxy]acetate]",42 h cumulative amt,human abdominal skin; [11],24.1 ± 3.3 nmol
same,42 h skin conc,human abdominal skin; [11],0.5 ± 0.3 µmol/g
same,Flux,human abdominal skin; [11],0.9 ± 0.1 nmol/cm^2/h
same,Lag time,human abdominal skin; [11],9.0 ± 2.7 h
same,42 h cumulative amt,human abdominal skin; [12],34.3 ± 15.5 nmol
same,42 h skin conc,human abdominal skin; [12],12.7 ± 6.6 µmol/g
same,Flux,human abdominal skin; [12],1.3 ± 0.5 nmol/cm^2/h
same,Lag time,human abdominal skin; [12],12.6 ± 2.5 h
same,42 h cumulative amt,human abdominal skin; [13],58.1 ± 15.5 nmol
same,42 h skin conc,human abdominal skin; [13],13.2 ± 6.9 µmol/g
same,Flux,human abdominal skin; [13],2.2 ± 0.5 nmol/cm^2/h
same,Lag time,human abdominal skin; [13],11.2 ± 2.2 h
same,Flux enhancement,"human abdominal skin; Table 16, 90:8:2 PG:H2O:IPM donor solution, 60/40 Hanks'/PEG 400 receiver fluid",0.33
same,detected in the skin as,human abdominal skin; in donor solution,mostly as prodrug in the skin with small amounts of cannabidiol
same,flux compared to cannabidiol,human abdominal skin; in donor solution,did not increase the flux
same,lag time compared to cannabidiol,human abdominal skin; in donor solution,slightly decreased
same,permeated through the skin as,human abdominal skin; in donor solution,intact prodrug and cannabidiol
same,total skin concentrations compared to cannabidiol,human abdominal skin; in donor solution,not higher
same,% Prodrug at time (h),"[1]; Table 20, 0 h",100%
same,% Prodrug at time (h),"[1]; Table 20, 2 h",0%
same,% Prodrug at time (h),"[1]; Table 20, 20 h",0%
same,% Prodrug at time (h),"[1]; Table 20, 24 h",0%
